# Data: US5453426A, “Sulfur-containing xanthine derivatives as adenosine antagonists” (priority 1994, dated 1995)
# Key:
# A1 receptor = details: relative to 8-phenyltheophylline; cited from earlier work
# A2 receptor = details: relative to 8-phenyltheophylline; cited from earlier work
# adenosine receptor = details: background; read-out: Ki-values as adenosine antagonists; cited from earlier work
# A1 adenosine receptors = target: T1, A1 adenosine receptors (Rattus norvegicus, UniProt P25099); assay: Inhibition of binding of [3H]N6-phenylisopropyladenosine to A1 adenosine receptors in rat cerebral cortical membranes
# T1 construct: A1 adenosine receptors in rat cerebral cortical membranes; from tissue; host or cells: rat cerebral cortex membranes
# T1 sequence (P25099 1-326): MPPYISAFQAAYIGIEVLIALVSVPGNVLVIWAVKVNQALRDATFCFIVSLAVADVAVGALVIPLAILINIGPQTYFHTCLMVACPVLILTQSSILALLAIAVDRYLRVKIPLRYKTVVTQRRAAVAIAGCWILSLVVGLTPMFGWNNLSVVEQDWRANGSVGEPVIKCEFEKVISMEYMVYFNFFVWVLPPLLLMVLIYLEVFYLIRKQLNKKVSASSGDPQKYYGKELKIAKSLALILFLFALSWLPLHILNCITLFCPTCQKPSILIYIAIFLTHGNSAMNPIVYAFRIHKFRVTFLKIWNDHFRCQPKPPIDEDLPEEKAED
# A2 adenosine receptors = A2 adenosine receptors (Rattus norvegicus, UniProt P30543); assay: Inhibition of binding of [3H]N-ethylcarboxamidoadenosine to A2-adenosine receptors in rat striatal membranes
# Description: Affinity at A1 - and A2 -adenosine receptors was measured in competitive binding assays, using as radioligands [^3 H]N^6 -phenylisopropyladenosine^17 (with rat cerebral cortical membranes) and [^3 H]5'-N-ethylcarboxamidoadenosine (with rat striatal membranes),^18 respectively.
# N^6 -Cyclopentyladenosine was present at 50 nM to inhibit binding of the ligand at A1 -adenosine receptors. Inhibition of binding by a range of concentrations of xanthines was assessed in triplicate in at least three separate experiments. IC50 -values were converted to Ki-values by the method of Bruns et al,^18 using a conversion factor derived from the affinity of [^3 H]N-ethylcarboxamidoadenosine at A2 receptors and the Cheng-Prusoff equation.^19
# [1] = Limit of solubility in the A2 binding assay; type: physicochemical; details: binding assay medium
# Description: Thus, compound 22 is >285-fold A1 -selective in these binding assays.
# [2] = target: Nethylcarboxamidoadenosine-stimulated adenylat cyclase; details: PC12 cell membranes; printed in brackets in the A2 Ki column; ref 10b; read-out: Kb for inhibition of N-ethylcarboxamidoadenosine-stimulated adenylate cyclase; cited from earlier work
# Chain of A2 adenosine receptors (P30543 whole entry): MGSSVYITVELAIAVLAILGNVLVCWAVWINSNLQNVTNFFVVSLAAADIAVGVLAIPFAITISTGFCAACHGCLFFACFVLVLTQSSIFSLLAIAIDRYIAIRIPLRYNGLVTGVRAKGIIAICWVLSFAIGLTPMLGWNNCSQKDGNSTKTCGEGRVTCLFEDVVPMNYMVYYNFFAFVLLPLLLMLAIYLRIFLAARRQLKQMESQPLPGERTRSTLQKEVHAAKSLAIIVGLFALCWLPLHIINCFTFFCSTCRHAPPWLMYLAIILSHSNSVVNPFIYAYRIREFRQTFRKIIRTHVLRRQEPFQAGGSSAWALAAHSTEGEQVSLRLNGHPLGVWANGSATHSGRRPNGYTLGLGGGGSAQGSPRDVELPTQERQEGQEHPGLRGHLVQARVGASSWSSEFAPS
smiles,measurement,setting,value
Cn1c(=O)c2sc(-c3ccccc3)nc2n(C)c1=O,reduction of activity at an A1 receptor by thio-substitution,A1 receptor,1000 fold
same,reduction of activity at an A2 receptor by thio-substitution,A2 receptor,~100 fold
"Cn1c(=O)c2[nH]cnc2n(C)c1=O [Compound 1a, theophylline]",Ki,adenosine receptor,≥ 10 µM
"CCCn1c(=O)c2[nH]c(-c3cccs3)nc2n(CCC)c1=S [Compound 22, 1,3-Dipropyl-8-(2-thienyl)-2-thioxanthine]",A1-selectivity,A1 adenosine receptors; A1 (rat cortex) versus A2 (rat striatum) binding,> 285 fold
same,"A1-selectivity, in words","A1 adenosine receptors; A1 versus A2 binding, relative to oxygen analogs",a greater margin of A1 -selectivity
same,Ki,"A1 adenosine receptors; rat cortical membranes, [3H]PIA, single determination in triplicate or average of three ± S.E.M., read-out: Ki A1-receptors",0.0351 ± 0.006 µM
same,Ki (A2)/Ki (A1),A1 adenosine receptors; ratio of A2 (rat striatum) to A1 (rat cortex) Ki,> 285
same,Ki,A2 adenosine receptors,> 10 µM
same,"A2 affinity/potency, in words",A2 adenosine receptors; relative to the analogs named in the text,did not bind measurably to A2 -receptors at its limit of solubility
same,solubility,[1],~10 µM
CCCn1c(=O)c2[nH]c(-c3ccc(OCC(=O)NCCNC)cc3)nc2n(CCC)c1=O [Compound 32],Kb,[2],0.0093 ± 0.0021 µM
